# Laboratory results reported in patent US20080274892A1, “Novel Haloalkylsulfonanilide Derivative, Herbicide, and Method of Use Thereof” (priority 2005, published 2008).
# Key:
# barnyard glass = assay: Test Example 2: herbicidal efficacy on rice paddy weeds post-emergence; assay type: in vivo, Echinochloa crus-galli; conditions: dosage 1000 g/ha; post-emergence, one leaf stage; 21 days after treatment
# Summary of the method: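 Efficacy on paddy weeds was scored on a 0 to 4 growth-inhibition scale: 4 for 90%-100%, 3 for 70%-89%, 2 for 40%-69%, 1 for 1%-39% and 0 for 0%. Barnyard glass was grown in clay loam in 75 cm^2 pots under 5 cm of water in a hot house. It was compared with untreated pots 21 days after treatment.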
# false pimpernel [1] = assay: as above; assay type: in vivo, Lindernia pyxidaria; conditions: dosage 1000 g/ha; post-emergence, one leaf stage; 21 days after treatment
# bulrush [2] = assay: Test Example 4: low dosage test for rice paddy weeds; assay type: in vivo, Scirpus juncoides; conditions: 300 g/ha as an active ingredient; plants treated at the one leaf stage; 21 days after treatment; vs untreated control
# Summary of the method: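 Compound applied as a formulation at 300 g/ha to one-leaf bulrush grown in flooded clay loam (5 cm water) in a hot house. After 21 days, growth inhibition versus untreated plants rated on a 0–4 scale, with 4 meaning 90–100%.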
# false pimpernel [3] = assay: Test Example 1: herbicidal efficacy on rice paddy weeds pre-emergence; assay type: in vivo, Lindernia pyxidaria; conditions: dosage 1000 g/ha, 21 days
# bulrush [4] = assay: as above; assay type: in vivo, Scirpus juncoides; conditions: dosage 1000 g/ha, 21 days
# [5] = tested on: paddy rice plant (cultivar: Nihonbare); assay: Test Example 3: phytotoxicity test for transplanted paddy rice plant; assay type: in vivo; conditions: dosage 1000 g/ha; transplanted rice, treated 5 days after transplantation; 21 days after treatment
# Summary of the method: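 Clay loam soil was placed in a 75 cm^2 plastic pot and flooded to a water depth of 5 cm. Two Nihonbare paddy rice plants at the two-leaf stage were transplanted 1 cm deep and grown in a hot house. After treatment, pots stayed in the hot house for 21 days, and phytotoxicity was then graded against an untreated control.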
# bulrush [6] = assay: Test Example 2: herbicidal efficacy on rice paddy weeds post-emergence; assay type: in vivo, Scirpus juncoides; conditions: dosage 1000 g/ha; post-emergence, one leaf stage; 21 days after treatment
# [7] = tested on: transplanted paddy rice plant and Bulrush; assay: Test Example 5: selectivity between transplanted paddy rice plant and weeds; assay type: in vivo; conditions: (highest dosage with no phytotoxicity to paddy rice)/(lowest dosage with effective level 4 on Bulrush); rice 3000-100 g/ha, Bulrush 300-10 g/ha; 21 days
# Summary of the method: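 Scoring ran 21 days after treatment in a hothouse on a 0–4 scale (4 = 90–100%, 3 = 70–89%, 2 = 40–69%, 1 = 1–39%, 0 = none) relative to untreated plants. Post-emergence bulrush received 10, 30, 100 and 300 g/ha active ingredient. Transplanted rice received 100, 300, 1000 and 3000 g/ha to assess crop injury.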
compound,measurement,setting,value
"CCC1COC(=O)N1Cc1ccccc1N(C(=O)OCC(C)C)S(=O)(=O)C(F)(F)F (stereo not drawn) [Compound No. 1-6, 4-ethyl-3-{2-[N-(isobutoxycarbonyl)-N-(trifluoromethanesulfonyl)amino]benzyl}-2-oxazolidinone]",Burnyard grass post (herbicidal efficacy grade),barnyard glass,4 (90%-100% of herbicidal efficacy or phytotoxicity)
same,False pimpernel post (herbicidal efficacy grade),false pimpernel [1],4 (90%-100% of herbicidal efficacy or phytotoxicity)
same,Herbicide effect to Bulrush,bulrush [2],3 (70%-89% of herbicidal efficacy or phytotoxicity)
same,False pimpernel pre (herbicidal efficacy grade),false pimpernel [3],4 (90%-100% of herbicidal efficacy or phytotoxicity)
same,Bulrush pre (herbicidal efficacy grade),bulrush [4],4 (90%-100% of herbicidal efficacy or phytotoxicity)
same,melting point,,69.3 to 71.7 °C
same,Phytotoxicity to paddy rice,[5],1 (1%-39% of herbicidal efficacy or phytotoxicity)
same,Bulrush post (herbicidal efficacy grade),bulrush [6],4 (90%-100% of herbicidal efficacy or phytotoxicity)
same,Selective Index,[7],3
"CC1(C)CN(Cc2ccccc2NS(=O)(=O)C(F)(F)F)C(=O)S1 [Compound No. 1-184, 5,5-dimethyl-3-[2-(trifluoromethanesulfonylamino)benzyl]thiazolidin-2-one]",Burnyard grass post (herbicidal efficacy grade),barnyard glass,4 (90%-100% of herbicidal efficacy or phytotoxicity)
same,False pimpernel post (herbicidal efficacy grade),false pimpernel [1],4 (90%-100% of herbicidal efficacy or phytotoxicity)
same,Herbicide effect to Bulrush,bulrush [2],4 (90%-100% of herbicidal efficacy or phytotoxicity)
same,False pimpernel pre (herbicidal efficacy grade),false pimpernel [3],4 (90%-100% of herbicidal efficacy or phytotoxicity)
same,Bulrush pre (herbicidal efficacy grade),bulrush [4],4 (90%-100% of herbicidal efficacy or phytotoxicity)
same,melting point,,115 to 117.5 °C
same,Phytotoxicity to paddy rice,[5],1 (1%-39% of herbicidal efficacy or phytotoxicity)
same,Bulrush post (herbicidal efficacy grade),bulrush [6],4 (90%-100% of herbicidal efficacy or phytotoxicity)
same,Selective Index,[7],10
"CC1(C)COC(=O)N1Cc1ccccc1NS(=O)(=O)C(F)(F)F [Compound No. 1-15, 4,4-dimethyl-3-[2-(trifluoromethanesulfonylamino)benzyl]-2-oxazolidinone]",Burnyard grass post (herbicidal efficacy grade),barnyard glass,4 (90%-100% of herbicidal efficacy or phytotoxicity)
same,False pimpernel post (herbicidal efficacy grade),false pimpernel [1],4 (90%-100% of herbicidal efficacy or phytotoxicity)
same,Herbicide effect to Bulrush,bulrush [2],4 (90%-100% of herbicidal efficacy or phytotoxicity)
same,False pimpernel pre (herbicidal efficacy grade),false pimpernel [3],4 (90%-100% of herbicidal efficacy or phytotoxicity)
same,Bulrush pre (herbicidal efficacy grade),bulrush [4],4 (90%-100% of herbicidal efficacy or phytotoxicity)
same,melting point,,134.9 °C
same,Phytotoxicity to paddy rice,[5],1 (1%-39% of herbicidal efficacy or phytotoxicity)
same,Bulrush post (herbicidal efficacy grade),bulrush [6],4 (90%-100% of herbicidal efficacy or phytotoxicity)
same,Selective Index,[7],10
"CCC1CN(Cc2ccccc2N(C(=O)OCC(C)C)S(=O)(=O)C(F)(F)F)C(=O)O1 (stereo not drawn) [Compound No. 1-24, 5-ethyl-3-{2-[N-(isobutoxycarbonyl)-N-(trifluoromethanesulfonyl)amino]benzyl}-2-oxazolidinone]",Burnyard grass post (herbicidal efficacy grade),barnyard glass,4 (90%-100% of herbicidal efficacy or phytotoxicity)
same,False pimpernel post (herbicidal efficacy grade),false pimpernel [1],4 (90%-100% of herbicidal efficacy or phytotoxicity)
same,Herbicide effect to Bulrush,bulrush [2],4 (90%-100% of herbicidal efficacy or phytotoxicity)
same,False pimpernel pre (herbicidal efficacy grade),false pimpernel [3],4 (90%-100% of herbicidal efficacy or phytotoxicity)
same,Bulrush pre (herbicidal efficacy grade),bulrush [4],4 (90%-100% of herbicidal efficacy or phytotoxicity)
same,melting point,,85 to 87 °C
same,Phytotoxicity to paddy rice,[5],0 (0% of herbicidal efficacy or phytotoxicity)
same,Bulrush post (herbicidal efficacy grade),bulrush [6],4 (90%-100% of herbicidal efficacy or phytotoxicity)
same,Selective Index,[7],33
"CC(C)COC(=O)N(c1ccccc1CN1C(=O)OCC1(C)C)S(=O)(=O)C(F)(F)F [Compound No. 1-16, 4,4-dimethyl-3-{2-[N-(isobutoxycarbonyl)-N-(trifluoromethanesulfonyl)amino]benzyl}-2-oxazolidinone]",Burnyard grass post (herbicidal efficacy grade),barnyard glass,4 (90%-100% of herbicidal efficacy or phytotoxicity)
same,False pimpernel post (herbicidal efficacy grade),false pimpernel [1],4 (90%-100% of herbicidal efficacy or phytotoxicity)
same,Herbicide effect to Bulrush,bulrush [2],4 (90%-100% of herbicidal efficacy or phytotoxicity)
same,False pimpernel pre (herbicidal efficacy grade),false pimpernel [3],4 (90%-100% of herbicidal efficacy or phytotoxicity)
same,Bulrush pre (herbicidal efficacy grade),bulrush [4],4 (90%-100% of herbicidal efficacy or phytotoxicity)
same,melting point,,65 to 65.8 °C
same,Phytotoxicity to paddy rice,[5],0 (0% of herbicidal efficacy or phytotoxicity)
same,Bulrush post (herbicidal efficacy grade),bulrush [6],4 (90%-100% of herbicidal efficacy or phytotoxicity)
same,Selective Index,[7],33
"CC1CN(Cc2ccccc2NS(=O)(=O)C(F)(F)F)C(=S)O1 (stereo not drawn) [Compound No. 1-21, 5-methyl-3-[2-(trifluoromethanesulfonylamino)benzyl]-2-oxazolidinethione]",Burnyard grass post (herbicidal efficacy grade),barnyard glass,4 (90%-100% of herbicidal efficacy or phytotoxicity)
same,False pimpernel post (herbicidal efficacy grade),false pimpernel [1],3 (70%-89% of herbicidal efficacy or phytotoxicity)
same,Herbicide effect to Bulrush,bulrush [2],4 (90%-100% of herbicidal efficacy or phytotoxicity)
same,False pimpernel pre (herbicidal efficacy grade),false pimpernel [3],4 (90%-100% of herbicidal efficacy or phytotoxicity)
same,Bulrush pre (herbicidal efficacy grade),bulrush [4],4 (90%-100% of herbicidal efficacy or phytotoxicity)
same,melting point,,74 to 76 °C
same,Phytotoxicity to paddy rice,[5],0 (0% of herbicidal efficacy or phytotoxicity)
same,Bulrush post (herbicidal efficacy grade),bulrush [6],4 (90%-100% of herbicidal efficacy or phytotoxicity)
same,Selective Index,[7],33
